The results in this text go back to patent publication US20110091470A1, “ANTI-FLT3 ANTIBODIES” (IMCLONE LLC, priority 2008, published 2011).

The test system of assay [1] is SEM-K2 cells. The assay is described as follows: Combination therapy with EB10 and MTX in SEM-K2 leukemia model. In kind it is in vivo, NOD/SCID mice. The conditions noted are these: monotherapy: EB10 10 mg/kg i.p. 2×/week; MTX 100 mg/kg Q7D. The protocol:
One day prior to the start of treatment, i.v. inject 65, 7 weeks old, male NOD/SCID mice with 5×10^5 SEM-K2 cells suspended in PBS in a total volume of 200 μl. Drop from the study mice receiving less than 90% of cells intravenously.
Prepare MTX (Sigma Chemical, Cat # M9929) in USP Saline at a concentration of 10 mg/ml and dose Q7D for three cycles. […] Record mouse survival daily. Follow the mice for survival, and sacrifice any mouse displaying signs of morbidity/mortality; mark as dead on the day of sacrifice. End the study on day 168 and sacrifice any mice surviving to that point. Compare survival in the treatment groups by Log Rank Test between treatment groups.

For assay [2], the system named is SEM-K2 cells. The assay is described as follows: SEM-K2 xenograft human leukemia model. In kind it is in vivo, NOD-SCID mice. The settings on record: 20 mg/kg i.p. two times weekly. A general note: A xenograft is tissue or cells of one species grown in another, often human tumour cells in immunodeficient mice.
The test system of another assay is Human Leukemia Cells. In words: ADCC 51Cr release assay with human NK cells. It is filed as cell-based.
Another assay concerns EOL-1 leukemia cells. The assay is described as follows: EOL-1 xenograft human AML leukemia model. It is filed as in vivo, NOD-SCID mice.
In a further assay the test system is Stat5. In words: Stat5 phosphorylation assay. The conditions noted are these: EOL-1, wild type.
In assay [3] the test system is human leukemia cells (human CD45) in bone marrow. In words: Bone marrow engraftment of human leukemia cells. It is filed as in vivo, mice. The settings on record: 500 μg/dose; versus control-IgG treated group. The method, then:
Bone Marrow Engraftment of Human Leukemia Cells: Harvest bone marrow from the femurs of EB10-treated mice (500 μg/dose) and the control-IgG treated group at […]. Analyze cells for human CD45 by flow cytometry at 6 and 14 weeks post leukemia cell injection for the degree of tumor cell infiltration of bone marrow. Compare the degree of tumor cell infiltration of bone marrow using immunohistochemical staining with a fluorescence-labeled anti-human CD45 antibody.

Assay [4] has as its system BaF3-ITD cells. The assay is described as follows: FL-independent cell proliferation assay ([3H]-thymidine). It is filed as cell-based. The method, then:
Harvest EOL-1 cells and wash three times using serum-free RPMI 1640 medium. Culture cells in serum-free RPMI 1640 medium for 12 hours. For BaF3-ITD cells, perform the proliferation assay in RPMI 1640 medium supplemented with 10% FCS in the absence of exogenous FL. Reconstitute cells in serum-free AIM-V medium, plate in triplicates in a flat-bottomed 96-well plate (1×104/100 μl/well) and incubate with varying concentrations of antibodies (from 0 to 100 nM) and 30 ng/ml of FL at 37° C. for 68 hours. As a background control, incubate cells with medium alone in the absence of exogenous FL. Pulse cells with 0.25 μCi/well of [^3H]-thymidine for 4 hours. Harvest cells and measure cpm in a PerkinElmer Wallace-1205 Betaplate Liquid Scintillation Counter (Wellesley, Mass.). Calculate the percent inhibition of FL-induced proliferation for EOL-1 cells; deduce the cpm of background proliferation (i.e., cell samples not stimulated with FL) from the cpm of all experimental samples. Calculate percent inhibition using the following formula: [(cpm of untreated sample−cpm of antibody-treated sample)/cpm of untreated sample]×100%.

Assay [5] relates to BaF3-ITD cells. The assay is described as follows: BaF3-ITD leukemia model. It is filed as in vivo, athymic (nu/nu) mice. The method, then:
BaF3-ITD Leukemia Model: Initiate i.v. injection of groups of 10 athymic (nu/nu) mice with 5×10^4 BaF3-ITD cells. For statistic analysis, use the non-parametric one-tailed Mann-Whitney Rank Sum test (SigmaStat 2.03, SPSS, Inc., Chicago, Ill.). Start treatment one day after tumor injection. […] Treat the control group with purified human IgG (500 μg/dose). Monitor mice daily for survival.

For the next assay, the system named is MOLM-14 leukemia cells. In words: MOLM14 xenograft AML leukemia model. It is filed as in vivo, mice. The protocol:
MOLM14 Xenograft AML Leukemia Model: Irradiate mice with 200 rads with a gamma irradiator and then i.v. inject with 10×10^6 MOLM-14 leukemia cells. Start treatment one day after tumor injection. […] Treat the control group with […] USP saline. Monitor mice daily for survival. Compare survival in the treatment groups by Log Rank test.

In assay [6] the target is ITD-mutant FLT3 expressed on BaF3-ITD cells. In words: cell-based or functional assay.
For assay [7], the target named is wild-type FLT3 expressed on human leukemia cells (human) (UniProt P36888). In words: cell-based or functional assay.
Where [8] appears, read: 100 μg/dose i.p. three times weekly.
[9] abbreviates: 500 μg/dose i.p. three times weekly.

Sequence of wild-type FLT3 expressed on human leukemia cells (human) (P36888 27-993 limits assumed): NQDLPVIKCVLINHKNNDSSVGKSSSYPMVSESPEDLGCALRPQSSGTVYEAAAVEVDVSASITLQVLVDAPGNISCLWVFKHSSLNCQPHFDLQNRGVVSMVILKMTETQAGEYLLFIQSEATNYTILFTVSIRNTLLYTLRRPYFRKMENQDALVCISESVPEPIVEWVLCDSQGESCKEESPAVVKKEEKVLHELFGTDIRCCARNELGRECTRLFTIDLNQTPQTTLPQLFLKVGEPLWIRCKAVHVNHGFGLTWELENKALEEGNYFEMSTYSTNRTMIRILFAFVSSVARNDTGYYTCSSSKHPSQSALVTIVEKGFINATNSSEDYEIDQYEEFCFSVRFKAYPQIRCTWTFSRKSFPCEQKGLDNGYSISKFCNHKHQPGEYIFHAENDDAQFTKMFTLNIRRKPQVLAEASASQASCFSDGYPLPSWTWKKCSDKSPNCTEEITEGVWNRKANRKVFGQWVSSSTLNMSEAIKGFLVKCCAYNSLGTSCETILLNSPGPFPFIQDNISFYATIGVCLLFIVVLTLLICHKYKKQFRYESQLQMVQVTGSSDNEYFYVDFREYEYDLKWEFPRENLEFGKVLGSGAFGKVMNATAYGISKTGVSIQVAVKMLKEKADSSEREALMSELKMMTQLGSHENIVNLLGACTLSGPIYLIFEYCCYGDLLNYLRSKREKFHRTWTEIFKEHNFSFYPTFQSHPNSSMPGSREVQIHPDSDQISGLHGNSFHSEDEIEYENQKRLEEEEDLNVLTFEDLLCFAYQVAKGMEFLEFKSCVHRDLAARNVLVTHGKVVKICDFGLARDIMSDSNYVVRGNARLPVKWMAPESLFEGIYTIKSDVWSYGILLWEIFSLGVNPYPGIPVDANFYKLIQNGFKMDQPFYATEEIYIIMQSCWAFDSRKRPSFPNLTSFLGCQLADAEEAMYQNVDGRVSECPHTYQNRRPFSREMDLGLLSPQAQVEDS
Sequence of ITD-mutant FLT3 expressed on BaF3-ITD cells (chain, as listed by the source mutant limits assumed, form in doubt): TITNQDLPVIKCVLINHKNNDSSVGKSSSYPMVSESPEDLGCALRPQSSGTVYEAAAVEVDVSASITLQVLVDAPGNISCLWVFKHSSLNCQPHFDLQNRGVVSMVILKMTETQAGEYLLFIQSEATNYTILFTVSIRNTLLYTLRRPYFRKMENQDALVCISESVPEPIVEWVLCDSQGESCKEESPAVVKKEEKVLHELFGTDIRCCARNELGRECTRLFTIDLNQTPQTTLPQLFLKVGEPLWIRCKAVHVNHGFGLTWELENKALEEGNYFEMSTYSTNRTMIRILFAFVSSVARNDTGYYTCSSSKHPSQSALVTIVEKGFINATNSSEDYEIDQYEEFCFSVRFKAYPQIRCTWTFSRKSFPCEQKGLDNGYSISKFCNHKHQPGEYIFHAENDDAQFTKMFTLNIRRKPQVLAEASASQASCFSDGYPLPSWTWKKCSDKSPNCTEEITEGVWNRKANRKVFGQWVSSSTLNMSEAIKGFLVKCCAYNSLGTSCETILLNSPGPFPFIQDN

As to `CN(Cc1cnc2nc(N)nc(N)c2n1)c1ccc(C(=O)N[C@@H](CCC(=O)O)C(=O)O)cc1` [MTX, methotrexate, reference compound], in the assay on SEM-K2 cells [1], the “mouse survival in comparison to the control group (in words)” value was “prolonged survival”.

On to “D4-3: recombinant human monoclonal antibody, full length IgG1κ targeting human FLT3; heavy chain SEQ ID NO 27, light chain SEQ ID NO 30 [Antibody D4-3]”, for which, in the assay with SEM-K2 cells [2], the median survival turned out to be 55.5 days. The “ADCC response (in words)” value in the assay on Human Leukemia Cells is listed as “less potent ADCC response”.

With “EB10: recombinant human monoclonal antibody, full length IgG1κ targeting human FLT3; heavy chain SEQ ID NO 25, light chain SEQ ID NO 28”, the values for the median survival with SEM-K2 cells [2], with MOLM-14 leukemia cells (0.2 mg/kg i.p. two times weekly) and in the assay on MOLM-14 leukemia cells (10 mg/kg i.p. two times weekly) were 108.5 days, 38.5 days and 63 days, respectively. Also, the “ADCC response (in words)” value in the assay with Human Leukemia Cells is “strong ADCC response”. Further, the “mouse survival in comparison to the control group (in words)” value in the assay on SEM-K2 cells [1] is recorded as “significantly prolonged mouse survival”. Further, in the assay on EOL-1 leukemia cells (10 μg), the “effect on survival (in words)” value is on record as “No effect”. For the same molecule, the mean survival time with EOL-1 leukemia cells (setting [8]) stood at 52.8 ± 18.6 days; in the assay on EOL-1 leukemia cells (250 μg/dose i.p. three times weekly), 55.3 ± 18.9 days; in the assay on EOL-1 leukemia cells (setting [9]) it was 62.3 ± 18.7 days; in the assay on BaF3-ITD cells [5] (setting [8]) it was 66.5 ± 32.9 days; with BaF3-ITD cells [5] (setting [9]), 63.4 ± 44.6 days. In the assay with Stat5, the “Inhibition of Stat5 Phosphorylation (IC50)” value was “No effect”. In addition, the “number of tumor cells in bone marrow” value in [3] was “decreased significantly”. The “% Inhibition of FL-independent proliferation (Mean ± Standard deviation)” value is given as 9.6 ± 3.1% in the assay with BaF3-ITD cells [4] (6 nM); 13.0 ± 4.0% with BaF3-ITD cells [4] (13 nM); 23.3 ± 0.6% in the assay with BaF3-ITD cells [4] (25 nM); 28.6 ± 3.1% with BaF3-ITD cells [4] (50 nM); 29.2 ± 3.0% in the assay on BaF3-ITD cells [4] (100 nM).

As to control IgG (antibody), in assay [6], the % Inhibition of FL-independent proliferation of BaF3-ITD cells at 100 nM worked out at 2%. In [7], this molecule gave a % Inhibition of FL-induced proliferation of EOL-1 cells at 100 nM of 0.4%.
